Here are results for one compound from patent publication US10493077B2, “Fused imidazo-piperidine JAK inhibitor compound” (THERAVANCE BIOPHARMA R&D IP, LLC, priority 2017, dated 2019).

The term inhibition denotes the share of the control response that was lost under treatment. High values mean strong suppression, low ones little suppression.

Read-outs that look alike come from different tables or passages of the source.

The target in assay [1] is T1, PAK4 (Homo sapiens, UniProt O96013).
T1 construct: made in house; host or cells: T7 phage in E. coli (BL21-derived) or HEK-293
T1 sequence (O96013 whole entry): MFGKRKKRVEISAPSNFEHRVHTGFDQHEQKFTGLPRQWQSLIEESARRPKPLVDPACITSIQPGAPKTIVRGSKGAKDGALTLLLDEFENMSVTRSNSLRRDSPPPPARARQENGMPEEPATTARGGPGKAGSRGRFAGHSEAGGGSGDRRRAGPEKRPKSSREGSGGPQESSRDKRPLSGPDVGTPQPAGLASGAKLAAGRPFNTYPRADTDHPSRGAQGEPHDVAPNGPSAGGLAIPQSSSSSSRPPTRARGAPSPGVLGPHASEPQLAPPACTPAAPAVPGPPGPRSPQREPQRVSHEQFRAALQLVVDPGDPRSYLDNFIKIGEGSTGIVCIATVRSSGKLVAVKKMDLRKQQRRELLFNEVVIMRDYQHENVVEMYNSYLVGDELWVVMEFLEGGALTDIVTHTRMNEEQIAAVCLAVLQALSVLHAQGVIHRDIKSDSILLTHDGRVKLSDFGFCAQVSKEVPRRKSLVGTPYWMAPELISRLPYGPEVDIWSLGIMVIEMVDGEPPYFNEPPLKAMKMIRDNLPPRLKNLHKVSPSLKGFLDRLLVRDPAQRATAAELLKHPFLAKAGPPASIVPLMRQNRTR
As to the kind of experiment: Kinome screen, PAK4. The class given is binding. The note with it: screened at 1 μM. On the procedure: (§1) Kinase-tagged T7 phage strains were grown in parallel in 24-well blocks in an E. coli host derived from the BL21 strain. E. coli were grown to log-phase and infected with T7 phage from a frozen stock (multiplicity of infection=0.4) and incubated with shaking at 32° C. until lysis (90-150 minutes). The lysates were centrifuged (6,000×g) and filtered (0.2 μm) to remove cell debris. The remaining kinases were produced in HEK-293 cells and subsequently tagged with DNA for qPCR detection.
(§2) Streptavidin-coated magnetic beads were treated with biotinylated small molecule ligands for 30 minutes at room temperature to generate affinity resins for kinase assays. The liganded beads were blocked with excess biotin and washed with blocking buffer (SeaBlock (Pierce), 1% BSA, 0.05% Tween 20, 1 mM DTT) to remove unbound ligand and to reduce non-specific phage binding. […] Test compounds were prepared as 40× stocks in 100% DMSO and directly diluted into the assay. All reactions were performed in polypropylene 384-well plates in a final volume of 0.04 ml. […] The beads were then re-suspended in elution buffer (1×PBS, 0.05% Tween 20, 0.5 μM non-biotinylated affinity ligand) and incubated at room temperature with shaking for 30 minutes. The kinase concentration in the eluates was measured by qPCR.

Assay [2] addresses T2, CDK7 (Homo sapiens, UniProt P50613).
T2 construct: made in house; host or cells: T7 phage in E. coli (BL21-derived) or HEK-293
Briefly: Kinome screen, CDK7. The class given is binding. The note with it: screened at 1 μM. Here is the method:
as §1, §2

Assay [3] addresses T3, CDK9 (Homo sapiens, UniProt P50750).
T3 construct: made in house; host or cells: T7 phage in E. coli (BL21-derived) or HEK-293
Briefly: Kinome screen, CDK9. The class given is binding. The note with it: screened at 1 μM. Here is the method: as §1, §2

The test system of assay [4] is IL-2 stimulated pSTAT5 in CD4+ T cells. Briefly: Cellular JAK potency assay: inhibition of IL-2 stimulated pSTAT5 in CD4+ T cells. The note with it: 0.5 h; CD4+ T cells in human PBMCs, 30 min stimulation; read-out: pIC50, inhibition of IL-2 stimulated pSTAT5 (converted). Type of assay: cell-based. Here is the method:
(§3) The potency of the test compound for inhibition of interleukin-2 (IL-2)/anti-CD3 stimulated STAT5 phosphorylation was measured in CD4-positive (CD4+) T cells in human peripheral blood mononuclear cells (PBMCs) isolated from human whole blood (Stanford Blood Center) using flow cytometry. Because IL-2 signals through JAK, this assay provides a measure of JAK cellular potency.
CD4+ T cells were identified using a […] (PE) conjugated anti-CD4 antibody (Clone RPA-T4, BD Biosciences), while an Alexa Fluor 647 conjugated anti-pSTAT5 antibody (pY694, Clone 47, BD Biosciences) was used to detect STAT5 phosphorylation. […]
(2) After cytokine stimulation, cells were fixed with pre warmed fix solution (200 μL; BD Biosciences) for 10 min at 37° C., 5% CO2, washed twice with DPBS buffer (1 mL, Life Technologies), and resuspended in ice cold Perm Buffer III (1000 μL, BD Biosciences) for 30 min at 4° C. […] After incubation, cells were washed twice in FACS buffer before being analyzed using a LSRII flow cytometer (BD Biosciences). To determine the inhibitory potency of the test compound in response to IL-2/anti-CD3, the median fluorescent intensity (MFI) of pSTAT5 was measured in CD4+ T cells. IC50 values were determined from analysis of the inhibition curves of MFI vs compound concentration. Data are expressed as pIC50 (negative decadic logarithm IC50) values.

Assay [5] concerns IL-6, IL-2, and IFNγ signaling. Briefly: Cellular assays of Assays 3 to 6 (summary statement). Type of assay: cell-based. The note with it: Homo sapiens, cellular assays described in Assays 3 to 6. On the procedure: The potency of the test compound for inhibition of interleukin-2 (IL-2)/anti-CD3 stimulated interferon gamma (IFNγ) was measured in human peripheral blood mononuclear cells (PBMCs) isolated from human whole blood (Stanford Blood Center). Because IL-2 signals through JAK, this assay provides a measure of JAK cellular potency.
as §3
The potency of the test compound for inhibition of interleukin-6 (IL-6) stimulated CCL2 (MCP-1) production was measured in human peripheral blood mononuclear cells (PBMCs) isolated from human whole blood (Stanford Blood Center). Because IL-6 signals through JAK, this assay provides a distal measure of JAK cellular potency.
The potency of the test compound for inhibition of interferon gamma (IFNγ) stimulated STAT1 phosphorylation was measured in CD14-positive (CD14+) monocytes derived from human whole blood (Stanford Blood Center) using flow cytometry. Because IFNγ signals through JAK, this assay provides a measure of JAK cellular potency.

The target of assay [6] is T4, CDK2 (Homo sapiens, UniProt P24941).
T4 construct: made in house; host or cells: T7 phage in E. coli (BL21-derived) or HEK-293
Briefly: Kinome screen, CDK2. Type of assay: binding. Particulars: screened at 1 μM. On the procedure:
as §1, §2

The target in assay [7] is T5, JAK2 (Homo sapiens, UniProt O60674).
T5 construct: GST; purchased Life Technologies
T5 sequence (O60674 whole entry): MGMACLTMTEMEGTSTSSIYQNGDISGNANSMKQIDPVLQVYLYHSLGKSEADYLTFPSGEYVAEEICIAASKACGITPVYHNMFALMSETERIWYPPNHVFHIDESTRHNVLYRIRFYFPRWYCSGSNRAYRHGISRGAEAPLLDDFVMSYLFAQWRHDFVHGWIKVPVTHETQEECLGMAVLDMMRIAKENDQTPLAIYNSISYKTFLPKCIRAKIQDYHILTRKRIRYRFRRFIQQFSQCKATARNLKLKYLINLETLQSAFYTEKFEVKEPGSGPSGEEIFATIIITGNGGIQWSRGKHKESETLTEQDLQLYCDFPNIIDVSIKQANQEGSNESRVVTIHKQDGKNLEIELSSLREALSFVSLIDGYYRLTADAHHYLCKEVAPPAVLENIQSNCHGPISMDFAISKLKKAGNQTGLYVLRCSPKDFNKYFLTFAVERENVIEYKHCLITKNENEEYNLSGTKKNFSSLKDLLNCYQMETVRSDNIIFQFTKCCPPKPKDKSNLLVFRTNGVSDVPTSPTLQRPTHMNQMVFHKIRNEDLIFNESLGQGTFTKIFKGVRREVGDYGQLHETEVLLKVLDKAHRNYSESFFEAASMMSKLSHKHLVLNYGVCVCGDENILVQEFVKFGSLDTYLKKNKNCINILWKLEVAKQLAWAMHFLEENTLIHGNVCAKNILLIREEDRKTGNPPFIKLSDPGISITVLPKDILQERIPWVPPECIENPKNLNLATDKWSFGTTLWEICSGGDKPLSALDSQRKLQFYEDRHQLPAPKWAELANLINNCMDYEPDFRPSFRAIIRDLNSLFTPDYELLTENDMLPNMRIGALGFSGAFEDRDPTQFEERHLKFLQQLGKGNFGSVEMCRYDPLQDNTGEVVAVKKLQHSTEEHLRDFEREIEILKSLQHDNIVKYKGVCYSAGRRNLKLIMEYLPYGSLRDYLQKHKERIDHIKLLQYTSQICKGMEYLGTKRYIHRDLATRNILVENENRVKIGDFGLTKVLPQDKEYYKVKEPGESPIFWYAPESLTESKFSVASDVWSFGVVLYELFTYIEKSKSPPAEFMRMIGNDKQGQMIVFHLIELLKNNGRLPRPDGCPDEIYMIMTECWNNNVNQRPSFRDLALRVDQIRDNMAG
Briefly: LanthaScreen JAK biochemical assay, JAK2. The note with it: read-out: JAK 2 pKi (converted). Here is the method: A panel of four LanthaScreen JAK biochemical assays (JAK1, 2, 3 and Tyk2) were carried in a common kinase reaction buffer (50 mM HEPES, pH 7.5, 0.01% Brij-35, 10 mM MgCl2, and 1 mM EGTA). Recombinant GST-tagged JAK enzymes and a GFP-tagged STAT1 peptide substrate were obtained from Life Technologies.
Serially diluted compound was pre-incubated with each of the four JAK enzymes and the substrate in white 384-well microplates (Corning) at ambient temperature for 1 h. ATP was subsequently added to initiate the kinase reactions in 10 μL total volume, with 1% DMSO. […] The plates were allowed to incubate at ambient temperature for 1 h before being read on the EnVision reader (Perkin Elmer). Emission ratio signals (520 nm/495 nm) were recorded and utilized to calculate the percent inhibition values based on DMSO and background controls.
For dose-response analysis, percent inhibition data were plotted vs. compound concentrations, and IC50 values were determined from a 4-parameter robust fit model with the Prism software (GraphPad Software). Results were expressed as pIC50 (negative logarithm of IC50) and subsequently converted to pKi (negative logarithm of dissociation constant, Ki) using the Cheng-Prusoff equation.

T3 sequence (P50750 whole entry): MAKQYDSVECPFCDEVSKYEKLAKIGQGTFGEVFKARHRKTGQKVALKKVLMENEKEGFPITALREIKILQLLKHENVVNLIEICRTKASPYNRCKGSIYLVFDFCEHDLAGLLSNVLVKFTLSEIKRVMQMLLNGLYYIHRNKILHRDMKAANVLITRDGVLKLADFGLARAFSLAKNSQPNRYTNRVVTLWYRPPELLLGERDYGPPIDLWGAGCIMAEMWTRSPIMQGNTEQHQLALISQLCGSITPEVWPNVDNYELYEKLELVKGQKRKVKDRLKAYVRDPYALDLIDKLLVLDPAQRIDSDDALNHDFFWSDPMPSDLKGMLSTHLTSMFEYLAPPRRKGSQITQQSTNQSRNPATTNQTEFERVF
T2 sequence (P50613 whole entry): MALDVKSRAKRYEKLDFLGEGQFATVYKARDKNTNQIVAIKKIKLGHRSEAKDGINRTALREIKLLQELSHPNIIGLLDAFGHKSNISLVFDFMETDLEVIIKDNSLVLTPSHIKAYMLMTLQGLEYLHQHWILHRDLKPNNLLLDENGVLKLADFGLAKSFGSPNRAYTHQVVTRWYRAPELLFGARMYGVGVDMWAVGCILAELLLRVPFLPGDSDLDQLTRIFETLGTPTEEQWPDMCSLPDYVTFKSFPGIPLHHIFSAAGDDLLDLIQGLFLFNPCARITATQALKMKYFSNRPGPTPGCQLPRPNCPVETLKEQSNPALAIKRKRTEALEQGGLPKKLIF

`CCc1cc(O)c(F)cc1-c1cc(F)c2c(-c3nc4c([nH]3)CCN(C(=O)CN3CCOCC3)C4)n[nH]c2c1` [Compound 1, 1-(2-(6-(2-ethyl-5-fluoro-4-hydroxyphenyl)-4-fluoro-1H-indazol-3-yl)-1,4,6,7-tetrahydro-5H-imidazo[4,5-c]pyridin-5-yl)-2-morpholinoethan-1-one]: the inhibition at 1 µM worked out at 93% in assay [1], 74% in assay [2], 9% in assay [3] and 6% in assay [6]. The IC50 was around 20 nM in assay [4]; at most 400 nM in assay [5] (read-out: IC50 for inhibition of IL-6, IL-2, and IFNγ signaling); at most 398 nM in assay [5] (read-out: pIC50 for inhibition of IL-6, IL-2, and IFNγ signaling (converted)). For the same compound, in assay [7], the Ki was 0.0251 nM.
